Assays:
[1] = system: 16HBE cells; assay: FLIPR calcium flux assay, intracellular calcium release on tastant addition; assay type: cell-based, human; settings: increasing concentrations of tastant, calcium-sensitive dye, FIG. 2
Protocol: Calcium flux assays were performed as previously described in Strachan et al., “Ribosomal S6 kinase 2 directly phosphorylates the 5-hydroxytryptamine 2A (5-HT2A) serotonin receptor, thereby modulating 5-HT2A signaling,” J Biol Chem 284:5557-5573 (2009). 16-HBE cells were trypsinized, counted, and seeded onto clear-bottomed 96 well plates (Greiner Bio-One; Monroe, N.C.) pre-coated with poly-D-lysine, at a density of […]. After a 24 hour incubation, media was removed and replaced with a Ca^2+ assay buffer (20 mM HEPES, lx HBSS, 2.5 mM probenecid, and Ca^2+ assay dye, pH 7.4) (FLIPR® Calcium Assay Kit; Molecular Device Corp, Sunnyvale, Calif.). After a 1-hour incubation at 37° C., during which the cells were allowed to take up the dye, fluorescence responses of cells were measured with a FLIPRTETRA (Molecular Device Corp; Sunnyvale, Calif.) device upon the addition of variable concentrations of tastant, or vehicle, in the presence of assay buffer (20 mM HEPES, pH 7.4, 1× Hanks Balanced Salt [Invitrogen; Carlsbad, Calif.] and 2.5 mM probenecid). After data acquisition, a subsequent addition of […] was injected into each well, and fluorescence was measured again. […] The cells were loaded with fluorescent calcium-sensitive dye, treated with a variety of tastants, and monitored for intracellular calcium release with a FLIPR imaging device.

[2] = system: 16HBE cells; assay: GloSensor cAMP assay, inhibition of forskolin-stimulated cAMP production; assay type: cell-based, human; settings: increasing concentrations, GloSensor luminescence, FIG. 3
Protocol: Also shown is that overexpression of the wildtype form of RGS21 blunts bitter signaling and increases cAMP levels. Inhibition of forskolin-stimulated cAMP production by treatment with indicated concentrations of denatonium-B was determined 24 hours post-transfection by detection of Promega's cAMP GloSensor-dependent luminescence. Twenty-four hours post-transfection, cells were re-plated on poly-D-lysine-treated, clear-bottom, white 384-well plates at a density of 15,000 cells/well. Forty-eight hours post-transfection, culture medium was aspirated and cells were washed once with assay medium (DMEM (without FBS or phenol), 15 mM HEPES pH 7.4) before being incubated for 2 hours with 20 ill/well of equilibration medium (assay medium with 4% GloSensor™ substrate (Promega; Madison, Wis.)). After two hours, 10 μl of 3× final concentration denatonium benzoate (diluted in 3 μM forskolin-containing assay medium) was added to each well and allowed to incubate for 10 minutes before GloSensor™ emission was read on a MicroBeta Plate Counter (PerkinElmer; Waltham, Mass.). Before plotting, luminescence counts were normalized to 100% maximal response for each condition to account for variability in GloSensor™ expression, transfection efficiency, and the exact number of cells per well.

## CC[N+](CC)(CC(=O)Nc1c(C)cccc1C)Cc1ccccc1 [denatonium-B, denatonium benzoate]
[1]
  intracellular calcium response of 16HBE cells: increase in intracellular calcium
[2]
  intracellular cyclic AMP concentration in 16HBE cells: decreasing the concentration of intracellular cyclic AMP
